In patent US10703757B2, “Compounds and methods for CDK8 modulation and indications therefor” (Plexxikon Inc., priority 2016, dated 2020):

What was measured:
[1] = tested on: CDK8 (phosphorylation of STAT1 at serine 727 in A549 cells); test: Cell based Phospho-STAT1 assay (IFNγ-stimulated A549 cells, AlphaLISA); details: Homo sapiens, A549, A549 cells, phospho-STAT1 after IFNγ stimulation
Method in brief: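 A549 cells given serial compound dilutions for 1 h at 37 °C, then stimulated with IFNγ at 10 ng/mL final for 30 min. Lysate STAT1 Ser727 phosphorylation measured by AlphaLISA; % inhibition vs stimulated/unstimulated DMSO controls, IC50 by nonlinear regression.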

[2] = tested on: CDK8 (TCF/LEF luciferase reporter in HCT116 cells); test: Cell based TCF/LEF reporter assay (HCT116+TCF/LEF luciferase); details: Homo sapiens, HCT-116, 24 h
Method in brief: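 Luciferase readout was corrected for viability (CellTiter-Fluor) and scaled between DMSO high and 10 uM CCT251545 low controls, giving IC50 by nonlinear regression. Compounds, serially diluted, were incubated 24 h at 37 °C on HCT116 clones stably expressing a TCF/LEF-driven luciferase reporter.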

SMILES	IC50 [1] [nM]	IC50 [2] [nM]
N#CC1CCN(c2cccn3ncc(-c4ccc(S(=O)(=O)N5CCOCC5)cc4)c23)CC1 [Compound P-0255, 1-(3-(4-(morpholino-sulfonyl)phenyl)pyrazolo[1,5-a]pyridin-4-yl)piperidine-4-carbonitrile]	1000 to 10000	1000 to 10000
N#CC1CCN(c2cccn3ncc(-c4ccc(C(=O)N5CCCC5)cc4)c23)CC1 [Compound P-0257, 1-(3-(4-(pyrrolidine-1-carbonyl)phenyl)pyrazolo[1,5-a]pyridin-4-yl)piperidine-4-carbonitrile]	100 to 1000	100 to 1000
N#CC1CCN(c2cccn3ncc(-c4ccc(C(=O)N5CCOCC5)cc4)c23)CC1 [Compound P-0258, 1-(3-(4-(morpholine-4-carbonyl)phenyl)pyrazolo[1,5-a]pyridin-4-yl)piperidine-4-carbonitrile]	100 to 1000	100 to 1000
N#CC1CCN(c2cccn3ncc(-c4ccc(NC(=O)OCc5ccccc5)cc4)c23)CC1 [Compound P-0259, benzyl (4-(4-(4-cyanopiperidin-1-yl)pyrazolo[1,5-a]pyridin-3-yl)phenyl)carbamate]	100 to 1000	100 to 1000
N#CC1CCN(c2cccn3ncc(-c4ccc(OCCCN5CCCCC5)cc4)c23)CC1 [Compound P-0260, 1-(3-(4-(3-(piperidin-1-yl)propoxy)phenyl)pyrazolo[1,5-a]pyridin-4-yl)piperidine-4-carbonitrile]	100 to 1000	100 to 1000
N#CC1CCN(c2cccn3ncc(-c4ccc(OCCN5CCOCC5)cc4)c23)CC1 [Compound P-0261, 1-(3-(4-(2-morpholino-ethoxy)phenyl)pyrazolo[1,5-a]pyridin-4-yl)piperidine-4-carbonitrile]	0.1 to 100	0.1 to 100
N#CC1CCN(c2cccn3ncc(-c4ccc(OCC(O)CN5CCOCC5)cc4)c23)CC1 (stereo not shown) [Compound P-0262, 1-(3-(4-(2-hydroxy-3-morpholino-propoxy)phenyl)pyrazolo[1,5-a]pyridin-4-yl)piperidine-4-carbonitrile]	0.1 to 100	0.1 to 100
N#CC1CCN(c2cccn3ncc(-c4ccc(OCC(O)CN5CCCCC5)cc4)c23)CC1 (stereo not shown) [Compound P-0263, 1-(3-(4-(2-hydroxy-3-(piperidin-1-yl)propoxy)phenyl)pyrazolo[1,5-a]pyridin-4-yl)piperidine-4-carbonitrile]	0.1 to 100	0.1 to 100
N#CC1CCN(c2cccn3ncc(-c4ccc(OCC5CCCCO5)cc4)c23)CC1 (stereo not shown) [Compound P-0264, 1-(3-(4-((tetrahydro-2H-pyran-2-yl)methoxy)phenyl)pyrazolo[1,5-a]pyridin-4-yl)piperidine-4-carbonitrile]	0.1 to 100	0.1 to 100
N#CC1CCN(c2cccn3ncc(-c4ccc(OC5CCCCC5)cc4)c23)CC1 [Compound P-0265, 1-(3-(4-(cyclo-hexyloxy)phenyl)pyrazolo[1,5-a]pyridin-4-yl)piperidine-4-carbonitrile]	1000 to 10000	1000 to 10000
CC(C)(C)COc1ccc(-c2cnn3cccc(N4CCC(C#N)CC4)c23)cc1 [Compound P-0266, 1-(3-(4-(neopentyloxy)phenyl)pyrazolo[1,5-a]pyridin-4-yl)piperidine-4-carbonitrile]	1000 to 10000	1000 to 10000
N#CC1CCN(c2cccn3ncc(-c4ccc(OCc5ccccc5)cc4)c23)CC1 [Compound P-0267, 1-(3-(4-(benzyloxy)phenyl)pyrazolo[1,5-a]pyridin-4-yl)piperidine-4-carbonitrile]	100 to 1000	100 to 1000
CNC(=O)c1ccc2cc(-c3cnc4[nH]ccc4c3C3=CCC(C#N)CC3)ccc2c1 (stereo not shown) [Compound P-0268, 6-(4-(4-cyanocyclohex-1-en-1-yl)-1H-pyrrolo[2,3-b]pyridin-5-yl)-N-methyl-2-naphthamide]	0.1 to 100	0.1 to 100
CNC(=O)c1ccc2cc(-c3cnc4[nH]ccc4c3N3CCC(F)(C#N)CC3)ccc2c1 [Compound P-0269, 6-(4-(4-cyano-4-fluoropiperidin-1-yl)-1H-pyrrolo[2,3-b]pyridin-5-yl)-N-methyl-2-naphthamide]	100 to 1000	100 to 1000
N#CC1CC=C(c2c(-c3ccc(-c4cnn(C(F)F)c4)cc3)cnc3[nH]ccc23)CC1 (stereo not shown) [Compound P-0270, 4-(5-(4-(1-(difluoromethyl)-1H-pyrazol-4-yl)phenyl)-1H-pyrrolo[2,3-b]pyridin-4-yl)cyclohex-3-ene-1-carbonitrile]	0.1 to 100	0.1 to 100
Cn1cc(-c2ccc(-c3cnc4[nH]ccc4c3N3CCC4(CCNC4=O)CC3)cc2)cn1 [Compound P-0271, 8-(5-(4-(1-methyl-1H-pyrazol-4-yl)phenyl)-1H-pyrrolo[2,3-b]pyridin-4-yl)-2,8-diazaspiro[4.5]decan-1-one]	100 to 1000	100 to 1000

SMILES	IC50 [1] [nM]	IC50 [2] [nM]
Cn1cc(-c2ccc(-c3cnc4[nH]ccc4c3N3CCC4(CC3)C(=O)Nc3ccccc34)cc2)cn1 [Compound P-0272, 1′-(5-(4-(1-methyl-1H-pyrazol-4-yl)phenyl)-1H-pyrrolo[2,3-b]pyridin-4-yl)spiro[indoline-3,4′-piperidin]-2-one]	100 to 1000	0.1 to 100
Cn1cc(-c2ccc(-c3cnn4cccc(C#CC(C)(C)C#N)c34)cc2)cn1 [Compound P-0273, 2,2-dimethyl-4-(3-(4-(1-methyl-1H-pyrazol-4-yl)phenyl)pyrazolo[1,5-a]pyridin-4-yl)but-3-ynenitrile]	0.1 to 100	0.1 to 100
Cn1cc(-c2ccc(-c3cnn4ccnc(C#CC(C)(C)O)c34)cc2)cn1 [Compound P-0274, 2-methyl-4-(3-(4-(1-methyl-1H-pyrazol-4-yl)phenyl)pyrazolo[1,5-a]pyrazin-4-yl)but-3-yn-2-ol]	0.1 to 100	0.1 to 100
Cn1cc(C#Cc2cnc3cccc(N4CCC5(CC4)NCNC5=O)n23)cn1 [Compound P-0275, 8-(3-((1-methyl-1H-pyrazol-4-yl)ethynyl)imidazo[1,2-a]pyridin-5-yl)-1,3,8-triazaspiro[4.5]decan-4-one]	100 to 1000	100 to 1000
CC1=NC2(CCN(c3cccc4ncc(C#Cc5cnn(C)c5)n34)CC2)C(=O)N1 [Compound P-0276, 2-methyl-8-(3-((1-methyl-1H-pyrazol-4-yl)ethynyl)imidazo[1,2-a]pyridin-5-yl)-1,3,8-triazaspiro[4.5]dec-1-en-4-one]	1000 to 10000	1000 to 10000
Cn1cc(C#Cc2cnc3cccc(N4CCC5(CC4)CNC(=O)O5)n23)cn1 [Compound P-0277, 8-(3-((1-methyl-1H-pyrazol-4-yl)ethynyl)imidazo[1,2-a]pyridin-5-yl)-1-oxa-3,8-diazaspiro[4.5]decan-2-one]	1000 to 10000	1000 to 10000
Cn1cc(C#Cc2cnc3cccc(N4CCC5(CCNC5=O)CC4)n23)cn1 [Compound P-0278, 8-(3-((1-methyl-1H-pyrazol-4-yl)ethynyl)imidazo[1,2-a]pyridin-5-yl)-2,8-diazaspiro[4.5]decan-1-one]	100 to 1000	100 to 1000
Cn1cc(-c2ccc(-c3cnn4ccnc(C5=CCC(C(N)=O)CC5)c34)cc2)cn1 (stereo not shown) [Compound P-0280, 4-(3-(4-(1-methyl-1H-pyrazol-4-yl)phenyl)pyrazolo[1,5-a]pyrazin-4-yl)cyclohex-3-ene-1-carboxamide]	0.1 to 100	0.1 to 100
Cc1ccc2cc(-c3cnn4cccc(C#CC(C)(C)O)c34)ccc2n1 [Compound P-0281, 2-methyl-4-(3-(2-methylquinolin-6-yl)pyrazolo[1,5-a]pyridin-4-yl)but-3-yn-2-ol]	100 to 1000	100 to 1000
COc1ccc2cc(-c3cnn4cccc(C#CC(C)(C)O)c34)ccc2n1 [Compound P-0282, 4-(3-(2-methoxyquinolin-6-yl)pyrazolo[1,5-a]pyridin-4-yl)-2-methylbut-3-yn-2-ol]	100 to 1000	100 to 1000
CC(C)(O)C#Cc1cccn2ncc(-c3cnn(-c4ccc(F)cc4)c3)c12 [Compound P-0283, 4-(3-(1-(4-fluorophenyl)-1H-pyrazol-4-yl)pyrazolo[1,5-a]pyridin-4-yl)-2-methylbut-3-yn-2-ol]	100 to 1000	100 to 1000
FC(F)n1cc(-c2ccc(-c3cnc4cccc(OC5COC5)n34)cc2)cn1 [Compound P-0284, 3-(4-(1-(difluoromethyl)-1H-pyrazol-4-yl)phenyl)-5-(oxetan-3-yloxy)imidazo[1,2-a]pyridine]	1000 to 10000	1000 to 10000
Cn1cc(-c2ccc(-c3cnn4cccc(N5CCC(F)(C(N)=O)CC5)c34)cc2)cn1 [Compound P-0285, 4-fluoro-1-(3-(4-(1-methyl-1H-pyrazol-4-yl)phenyl)pyrazolo[1,5-a]pyridin-4-yl)piperidine-4-carboxamide]	100 to 1000	100 to 1000
CC(C)(O)C#Cc1cccn2ncc(-c3ccc4nccn4c3)c12 [Compound P-0286, 4-(3-(imidazo[1,2-a]pyridin-6-yl)pyrazolo[1,5-a]pyridin-4-yl)-2-methylbut-3-yn-2-ol]	0.1 to 100	100 to 1000
CC(C)(O)C#Cc1cccn2ncc(-c3cnn(-c4cncc(C5CC5)c4)c3)c12 [Compound P-0289, 4-(3-(1-(5-cyclopropylpyridin-3-yl)-1H-pyrazol-4-yl)pyrazolo[1,5-a]pyridin-4-yl)-2-methylbut-3-yn-2-ol]	1000 to 10000	1000 to 10000
Cn1cc(-c2ccc(-c3cnn4cccc(N5CCC(F)(C#N)CC5)c34)cc2)cn1 [Compound P-0293, 4-fluoro-1-(3-(4-(1-methyl-1H-pyrazol-4-yl)phenyl)pyrazolo[1,5-a]pyridin-4-yl)piperidine-4-carbonitrile]	0.1 to 100	1000 to 10000
